In assay [1] the target is Recombinant Human Siglec-3/CD33 protein (His-CD33) (Homo sapiens (Human), UniProt P20138). Kind of assay: Differential scanning fluorimetry (DSF) thermal shift assay. In kind it is binding. Background: In DSF a fluorescence change marks the thermal transition of the protein.
Assay [2] addresses Recombinant human CD33 protein (Homo sapiens (Human), UniProt P20138). Kind of assay: CD33 competitive binding assay for HTS drug screen (fluorescent multivalent sialic acid probe). In short, it runs like this: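 Inhibition was read as reduced retention of a fluorescent multivalent sialic acid complex (final 5 μM neutravidin, 15 μM A-375, 5 μM biotin-4-FITC) on plate-immobilized human CD33. Compound was added first, the probe followed for 30 min at room temperature in PBS with 0.2% Tween-20 and 0.5% BSA, and FITC was measured after a wash.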

Where [3] appears, read: thermal melt shift of 0.5 μM CD33 protein with 50 μM compound.
Setting [4] is: difference in thermal melt of CD33 protein (0.5 μM) with 50 μM compound.

Sequence of Recombinant human CD33 protein (P20138 18-259): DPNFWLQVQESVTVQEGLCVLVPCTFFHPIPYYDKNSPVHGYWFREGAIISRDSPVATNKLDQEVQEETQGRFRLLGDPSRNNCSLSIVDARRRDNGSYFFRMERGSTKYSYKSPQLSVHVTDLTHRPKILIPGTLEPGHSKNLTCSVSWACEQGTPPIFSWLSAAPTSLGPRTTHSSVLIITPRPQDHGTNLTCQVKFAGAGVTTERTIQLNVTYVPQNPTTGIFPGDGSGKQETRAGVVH
Sequence of Recombinant Human Siglec-3/CD33 protein (His-CD33) (P20138 18-259): as above

What is called EC50 is the midpoint of the concentration-response curve. Take `CC(=O)N[C@H]1[C@H]([C@H](O)[C@H](O)CNC(=O)c2cnc3[nH]ncc3c2)O[C@@](CCN2CCOC[C@@]23CCN(C(=O)OC(C)(C)C)C3)(C(=O)O)C[C@@H]1O` [A-126]: the “DSF (dTmD)” value in assay [1] (setting [3]) amounted to 11.2. For the same molecule, the EC50 in assay [2] is 50 nM.
The corresponding values for `CC(=O)N[C@H]1[C@H]([C@H](O)[C@H](O)CNC(=O)c2ccc(Cl)c(Cl)c2)O[C@@](CCN2CCOC[C@@]23CCN(C(=O)OC(C)(C)C)C3)(C(=O)O)C[C@@H]1O` [A-186] are 10.8 and 127 nM.
In the case of `CC(=O)N[C@H]1[C@H]([C@H](O)[C@H](O)CNC(=O)c2coc(C)c2)O[C@@](CCN2CCOC[C@@]23CCN(C(=O)OC(C)(C)C)C3)(C(=O)O)C[C@@H]1O` [A-158], in assay [1] (setting [3]), the “DSF (dTmD)” value was found to be 10.4. In addition, the EC50 in assay [2] came to 133 nM.
Turning to `Cc1cc(C(=O)NC[C@@H](O)[C@@H](O)[C@@H]2O[C@@](CC3OC(C)(C)O[C@H]3c3cccc(NC(=O)OC(C)(C)C)c3)(C(=O)O)C[C@H](O)[C@H]2NC(=O)Cn2cc(C3CCCCC3)nn2)cc(C)c1O` (some centres unmarked) [A-299], the “DSF (dTmD)” value in assay [1] (setting [4]) stood at 8.0 °C. In assay [2], the EC50 worked out at 512 nM.
In the case of `CC(=O)N[C@H]1[C@H]([C@H](O)[C@H](O)CNC(=O)c2cc(C)c(O)c(C)c2)O[C@@](CCN2CCOC[C@@]23CCN(C(=O)NC2(c4ccc(F)cc4)CCCC2)C3)(C(=O)O)C[C@@H]1O` [A-057], in assay [1] (setting [3]), the “DSF (dTmD)” value worked out at 9.7. Besides, the concentration for a half-maximal effect (EC50) in assay [2] was 265 nM.
Consider `Cc1cc(C(=O)NC[C@@H](O)[C@@H](O)[C@@H]2O[C@@](C/C=C/c3cccc(CNC(=O)C4CCC[C@H](NS(C)(=O)=O)C4)c3)(C(=O)O)C[C@H](O)[C@H]2NC(=O)Cn2cc(C3CCCCC3)nn2)cc(C)c1O` (some centres unmarked) [A-282], for which the “DSF (dTmD)” value in assay [1] (setting [4]) was found to be 6.2 °C. For the same molecule, in assay [2], the concentration giving a half-maximal response (EC50) worked out at 1680 nM.
On to `CC(=O)N[C@H]1[C@H]([C@H](O)[C@H](O)CNC(=O)c2cc(C)c(O)c(C)c2)O[C@@](CCN2CCOCC2(C)CNC(=O)OC(C)(C)C)(C(=O)O)C[C@@H]1O` (some centres unmarked) [A-009], for which the “DSF (dTmD)” value in assay [1] (setting [3]) amounted to 6.1. For the same molecule, the EC50 in assay [2] came out at 2000 nM.
Consider `CC(=O)N[C@H]1[C@H]([C@H](O)[C@H](O)CNC(=O)c2cc(C)c(O)c(C)c2)O[C@@](C/C=C/c2cccc(CNC(=O)c3ccc4[nH]c(-c5c[nH]c6ccccc56)cc4c3)c2)(C(=O)O)C[C@@H]1O` [A-250], for which the “DSF (dTmD)” value in assay [1] (setting [4]) stood at 8.4 °C. Also, the EC50 in assay [2] is 3260 nM.
Consider `Cc1cc(C(=O)NC[C@@H](O)[C@@H](O)[C@@H]2O[C@@](C/C=C/c3cccc(CNC(=O)C4CCCO4)c3)(C(=O)O)C[C@H](O)[C@H]2NC(=O)Cn2cc(C3CCCCC3)nn2)cc(C)c1O` (some centres unmarked) [A-267], for which, in assay [1] (setting [4]), the “DSF (dTmD)” value amounted to 3.8 °C. Further, the EC50 in assay [2] amounted to 9170 nM.
Consider `CCC/C(C)=C/C(=O)NC[C@@H](O)[C@@H](O)[C@@H]1O[C@@](CCN2CCOC[C@@]23CCN(C(=O)OC(C)(C)C)C3)(C(=O)O)C[C@H](O)[C@H]1NC(C)=O` [A-162], for which the “DSF (dTmD)” value in assay [1] (setting [3]) was determined as 4.8. The EC50 in assay [2] came to 4210 nM.
The corresponding values for `CC(=O)N[C@H]1[C@H]([C@H](O)[C@H](O)CNC(=O)c2cccc(Cl)c2)O[C@@](CCN2CCOC[C@@]23CCN(C(=O)OC(C)(C)C)C3)(C(=O)O)C[C@@H]1O` [A-182] are 11.7 and 73 nM.
Regarding `CC(=O)N[C@H]1[C@H]([C@H](O)[C@H](O)CNC(=O)c2cc(C)c(O)c(C)c2)O[C@@](CC2OC(C)(C)O[C@H]2c2ccccc2CNC(=O)OC(C)(C)C)(C(=O)O)C[C@@H]1O` (some centres unmarked) [A-310], in assay [1] (setting [4]), the “DSF (dTmD)” value worked out at 3.5 °C. Also, the EC50 in assay [2] turned out to be 3240 nM.
With `COc1cc(C(=O)NC[C@@H](O)[C@@H](O)[C@@H]2O[C@@](CCN3CCOC[C@@]34CCN(C(=O)OC(C)(C)C)C4)(C(=O)O)C[C@H](O)[C@H]2NC(C)=O)cc(OC)c1O` [A-123], in assay [1] (setting [3]), the “DSF (dTmD)” value was 11.0. For the same molecule, the concentration for a half-maximal effect (EC50) in assay [2] came out at 68 nM.
`COc1cc(C(=O)NCc2cccc(/C=C/C[C@]3(C(=O)O)C[C@H](O)[C@@H](NC(=O)Cn4cc(C5CCCCC5)nn4)[C@H]([C@H](O)[C@H](O)CNC(=O)c4cc(C)c(O)c(C)c4)O3)c2)ccc1O` [A-279]: the “DSF (dTmD)” value in assay [1] (setting [4]) came out at 4.5 °C. The EC50 in assay [2] is 10400 nM.
Regarding `CC(=O)N[C@H]1[C@H]([C@H](O)[C@H](O)CNC(=O)c2cc(Br)ccc2F)O[C@@](CCN2CCOC[C@@]23CCN(C(=O)OC(C)(C)C)C3)(C(=O)O)C[C@@H]1O` [A-172], the “DSF (dTmD)” value in assay [1] (setting [3]) was 7.6. For the same molecule, the EC50 in assay [2] was determined as 820 nM.
The corresponding values for `CC(=O)N[C@H]1[C@H]([C@H](O)[C@H](O)CNC(=O)c2ccc(C(F)(F)F)c(O)c2)O[C@@](CCN2CCOC[C@@]23CCN(C(=O)OC(C)(C)C)C3)(C(=O)O)C[C@@H]1O` [A-146] are 10.6 and 262 nM.
Take `CC(=O)N[C@H]1[C@H]([C@H](O)[C@H](O)CNC(=O)c2cc(C)c(O)c(C)c2)O[C@@](CCN2CCOC[C@@]23CCN(C(=O)Nc2ccc(C)cc2)C3)(C(=O)O)C[C@@H]1O` [A-053]: the “DSF (dTmD)” value in assay [1] (setting [3]) came to 9.2. For the same molecule, the EC50 in assay [2] was 147 nM.
For `Cc1cc2cc(C)c1OCCOC[C@@H](NC(=O)C1CCCOC1)COC/C=C/C[C@]1(C(=O)O)C[C@H](O)[C@@H](NC(=O)Cn3cc(C4CCCCC4)nn3)[C@@H](O1)[C@H](O)[C@H](O)CNC2=O` (some centres unmarked) [A-341], in assay [1] (setting [4]), the “DSF (dTmD)” value was found to be 2.7 °C. The EC50 in assay [2] turned out to be 9980 nM.
On to `CC(=O)N[C@H]1[C@H]([C@H](O)[C@H](O)CNC(=O)c2cc(C)c(O)c(C)c2)O[C@@](C/C=C/c2ccccc2CNC(=O)C2CCCOC2)(C(=O)O)C[C@@H]1O` (some centres unmarked) [A-233], for which, in assay [1] (setting [4]), the “DSF (dTmD)” value stood at 3.0 °C. The EC50 in assay [2] was 8990 nM.
For the molecule `CC(=O)N[C@H]1[C@H]([C@H](O)[C@H](O)CNC(=O)c2cc(C)c(O)c(C)c2)O[C@@](CCN2CCOC[C@@]23CCN(C(=O)C2CC(C)(C)C2)C3)(C(=O)O)C[C@@H]1O` [A-080], in assay [1] (setting [3]), the “DSF (dTmD)” value is 10.2. Further, in assay [2], the EC50 was determined as 68 nM.
For the molecule `CC(=O)N[C@H]1[C@H]([C@H](O)[C@H](O)CNC(=O)c2cc(C)c(O)c(C)c2)O[C@@](C/C=C/c2cccc(CNC(=O)c3ccc4cn[nH]c4c3)c2)(C(=O)O)C[C@@H]1O` [A-235], in assay [1] (setting [4]), the “DSF (dTmD)” value was 3.3 °C. Besides, in assay [2], the EC50 amounted to 2090 nM.
The corresponding values for `CC(=O)N[C@H]1[C@H]([C@H](O)[C@H](O)CNC(=O)c2cc(C)c(O)c(C)c2)O[C@@](C/C=C/c2cccc(CNC(=O)C3CCCC(Nc4ccc(C)cn4)C3)c2)(C(=O)O)C[C@@H]1O` (some centres unmarked) [A-259] are 3.1 °C and 5810 nM.
The corresponding values for `CNC(=O)c1cccc(COC(=O)NCC(=O)NC2CCCCC2O[C@]2(C(=O)O)C[C@H](O)[C@@H](NC(=O)Cn3cc(C4CCCCC4)nn3)[C@H]([C@H](O)[C@H](O)CNC(=O)c3cc(C)c(O)c(C)c3)O2)c1` (some centres unmarked) [A-327] are 3.2 °C and 6610 nM.
Consider `CC(=O)N[C@H]1[C@H]([C@H](O)[C@H](O)CNC(=O)c2cc(C)c(O)c(C)c2)O[C@@](C/C=C/c2cccc(CNC(=O)C3CCC(Nc4ncccn4)CC3)c2)(C(=O)O)C[C@@H]1O` (some centres unmarked) [A-253], for which the “DSF (dTmD)” value in assay [1] (setting [4]) is 9.6 °C. In assay [2], the EC50 was found to be 195 nM.
On to `Cc1cc(C(=O)NC[C@@H](O)[C@@H](O)[C@@H]2O[C@@](C/C=C/c3cccc(CNC(=O)c4ccn(C)c(=O)c4)c3)(C(=O)O)C[C@H](O)[C@H]2NC(=O)Cn2cc(C3CCCCC3)nn2)cc(C)c1O` [A-273], for which the “DSF (dTmD)” value in assay [1] (setting [4]) was found to be 5.4 °C. Further, in assay [2], the EC50 was 9940 nM.
